The experiment deals with Adult patients with moderate to severe chronic atopic dermatitis. In words: Randomised, double-blind, placebo-controlled study of oral L-histidine in atopic dermatitis (SCORAD, POEM, TEWL). Format: in vivo, human. As for the experimental part: A randomised, double-blind, placebo-controlled study was conducted as follows: Adult (i.e. greater than 18 years of age) patients with moderate to severe chronic atopic dermatitis were recruited to the study from patients and diagnosis of atopic dermatitis confirmed using the UK Working Party's Diagnostic criteria (see Williams et al, Br. J. Dermatol. 1994; 131:383-96). Exclusion criteria were: patients aged less than 18 years, pregnancy or lactation, liver disease, exposure to natural or artificial ultra-violet radiation, immunosuppression due to disease or medication and Chinese herbal medicine in the 3 months preceding the study. Patients were asked to cease potent topical steroid use during the study. Disease severity was quantified by a research nurse using the well established SCORAD system (see Schmitt et al, European Dermato-Epidemiology Network, J. Allergy Clin. Immunol., 2007; 120:1389-98) and self assessed by the patients using POEM (Patient-Oriented Eczema Measure; see […] et al, J. Arch. Dermatol. 2004; 140-1513-9). Skin barrier function was assessed using a Vapometer® which quantifies Trans Epidermal Water Loss (TEWL; see Fluhr et al, Exp. Dermatol., 2006; 15:483-92). Atopic dermatitis patients were randomised into each of 2 groups and after a 'washout' period of 2 weeks and received either 4.0 g of powder L-histidine or 4.0 g of placebo (the naturally occurring food sweetener, erythritol) powder daily for 4 weeks. The patients were instructed to dissolve either the L-histidine or placebo powder in fruit juice. Neither the patient nor the clinical staff was aware of the identity of treatments administered.

Setting [1] is: 4.0 g daily oral for 4 weeks, n=4.

Results on 1 molecule are retold here after patent US12350256B2, “Histidine and/or histidine derivative for the treatment of inflammatory skin diseases” (Curapel (Scotland) Limited, priority 2008, dated 2025).

Regarding `N[C@@H](Cc1c[nH]cn1)C(=O)O` [L-Histidine, 2-amino-3-(3H-imidazol-4-yl)propanoic acid], under setting [1], the “POEM % change after 4 wks” value was −25%, the “SCORAD % change after 4 wks” value was −22%, the “SCORAD after 4 wks” value was 25 and the “TEWL % change after 4 wks” value is −50%. Besides, under “4 weeks of 4.0 g daily”, the “reduction of clinician-scored disease activity (SCORAD)” value was 22%, the “reduction of patient-scored disease activity” value was found to be 25% and the “reduction of transepidermal water loss (TEWL)” value was 50%. The “TEWL after 4 wks” value (Vapometer, 4.0 g daily oral for 4 weeks, n=4) was 8. Further, the SCORAD before (baseline before treatment, 4.0 g daily oral group, n=4) is given as 37. This molecule showed a TEWL before (baseline before treatment, Vapometer, 4.0 g daily oral group, n=4) of 16. Under “baseline before treatment, patient self-assessed, 4.0 g daily oral group, n=4”, the POEM before came out at 20. For the setting “patient self-assessed, 4.0 g daily oral for 4 weeks, n=4”, the “POEM after 4 wks” value is recorded as 15.
